The record followed here is patent publication US11564928B1, “Cannabinoid receptor type 2 (CB2) modulators and uses thereof” (Teon Therapeutics, Inc., priority 2020, dated 2023).

pIC50: −log10 of the molar value. Where two headings read alike, the source gives them in different places. Bounds are passed on as bounds.

One assay deals with human CB2 receptor (Homo sapiens (Human), UniProt P34972). Put plainly: CB2 receptor binding assay ([3H]CP-55,940 displacement, HEK-293 membranes).
A further assay concerns the target human recombinant CB1R (Homo sapiens (Human), UniProt P21554). Put plainly: CB1 receptor binding assay ([3H]CP-55,940 displacement, HEK-293 membranes). As to conditions: membranes of HEK-293 cells with human recombinant CB1R, [3H]CP-55,940, read-out: CB1 IC50. The method, boiled down: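 Membranes from HEK-293 cells expressing human recombinant CB1R or CB2R were incubated with [3H]CP-55,940 and compound for 120 min at 37 °C in duplicate. The CB2R incubation buffer was 50 mM Tris-HCl, 5 mM MgCl2, 1 mM CaCl2, 0.2% BSA, pH 7.4. Bound radioactivity was filtered and counted, and IC50 was converted to Ki by Cheng–Prusoff.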

Setting [1] is: membranes of HEK-293 cells with human recombinant CB2R, [3H]CP-55,940, class symbols, read-out: CB2 IC50.
The mark [2] stands for this setting: membranes of HEK-293 cells with human recombinant CB2R, [3H]CP-55,940, read-out: CB2 IC50.

Sequence of human recombinant CB1R (P21554 whole entry): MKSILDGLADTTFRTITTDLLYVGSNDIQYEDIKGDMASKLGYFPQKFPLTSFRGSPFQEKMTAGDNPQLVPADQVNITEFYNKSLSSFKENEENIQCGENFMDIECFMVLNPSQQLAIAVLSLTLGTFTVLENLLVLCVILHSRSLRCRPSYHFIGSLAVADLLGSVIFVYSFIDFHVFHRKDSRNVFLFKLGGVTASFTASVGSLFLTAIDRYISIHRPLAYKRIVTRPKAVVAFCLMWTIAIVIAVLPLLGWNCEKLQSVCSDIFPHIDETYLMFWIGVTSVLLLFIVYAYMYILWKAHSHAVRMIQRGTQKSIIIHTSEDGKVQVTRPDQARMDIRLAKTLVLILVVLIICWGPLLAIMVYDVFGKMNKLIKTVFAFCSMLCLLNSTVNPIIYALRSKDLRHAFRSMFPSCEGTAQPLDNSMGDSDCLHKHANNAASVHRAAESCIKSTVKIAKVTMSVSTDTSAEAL
Sequence of human CB2 receptor (P34972 whole entry): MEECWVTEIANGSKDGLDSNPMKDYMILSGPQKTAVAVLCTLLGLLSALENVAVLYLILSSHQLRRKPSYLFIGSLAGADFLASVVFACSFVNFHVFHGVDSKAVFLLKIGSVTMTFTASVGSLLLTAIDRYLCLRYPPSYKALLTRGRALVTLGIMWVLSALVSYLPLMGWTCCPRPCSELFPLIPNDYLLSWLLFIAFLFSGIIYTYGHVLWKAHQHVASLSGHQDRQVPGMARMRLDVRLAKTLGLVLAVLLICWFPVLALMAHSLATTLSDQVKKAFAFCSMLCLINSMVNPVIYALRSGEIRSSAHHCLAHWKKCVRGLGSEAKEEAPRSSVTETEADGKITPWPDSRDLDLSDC

For the molecule `O=C(NC12CC(C1)C2)c1c(O)c2cc(-c3ccc(F)cc3)cnc2n(CCN2CCCCC2)c1=O` [Compound 128, N-(bicyclo[1.1.1]pentan-1-yl)-6-(4-fluorophenyl)-4-hydroxy-2-oxo-1-(2-(piperidin-1-yl)ethyl)-1,2-dihydro-1,8-naphthyridine-3-carboxamide], the results for the pIC50 on human CB2 receptor and on human recombinant CB1R (class symbols) were 6.00 to 7.00 and under 6.00, respectively.

In the case of `O=C(NC1CC2(CCC2)C1)c1cc2cc(Br)cnc2n(Cc2cccnc2)c1=O` [Compound 96, 6-bromo-2-oxo-1-(pyridin-3-ylmethyl)-N-(spiro[3.3]heptan-2-yl)-1,2-dihydro-1,8-naphthyridine-3-carboxamide], the results for the pIC50 on human CB2 receptor (setting [1]) and on human recombinant CB1R (class symbols) were over 7.00 and under 6.00, respectively.

As to `O=C(NC12CC(C1)C2)c1c(O)c2cc(C3CCCC3)cnc2n(CCN2CCOCC2)c1=O` [Compound 126, N-(bicyclo[1.1.1]pentan-1-yl)-6-cyclopentyl-4-hydroxy-1-(2-morpholinoethyl)-2-oxo-1,2-dihydro-1,8-naphthyridine-3-carboxamide], the pIC50 at human CB2 receptor (setting [1]) and on human recombinant CB1R (class symbols) was under 6.00 throughout.

As for `C[C@H]1CC[C@@H](NC(=O)c2c(O)c3cccnc3n(Cc3ccc(F)cc3)c2=O)CC1` [Compound 143, 1-(4-fluorobenzyl)-4-hydroxy-N-((1s, 4s)-4-methylcyclohexyl)-2-oxo-1,2-dihydro-1,8-naphthyridine-3-carboxamide], the values for the pIC50 at human CB2 receptor (setting [2]) and at human recombinant CB1R were 7.47 and 5.47, respectively.

As to `O=C(NC12CC(C1)C2)c1c(O)c2nccnc2n(Cc2ccc(F)cc2)c1=O` [Compound 147, N-(bicyclo[1.1.1]pentan-1-yl)-5-(4-fluorobenzyl)-8-hydroxy-6-oxo-5,6-dihydropyrido[2,3-b]pyrazine-7-carboxamide], the pIC50 on human CB2 receptor (setting [1]) and at human recombinant CB1R (class symbols) was under 6.00 in each case.

As for `Cc1c(C(=O)NC2CC3(CCC3)C2)c(=O)n(Cc2ccc(C#N)cc2)c2ncc(Br)cc12` [Compound 77, 6-bromo-1-(4-cyanobenzyl)-4-methyl-2-oxo-N-(spiro[3.3]heptan-2-yl)-1,2-dihydro-1,8-naphthyridine-3-carboxamide], the results for the pIC50 on human CB2 receptor and on human recombinant CB1R (class symbols) were 6.00 to 7.00 and under 6.00, respectively.

`CC1CCC(NC(=O)c2c(O)c3cc(-c4ccc(C5CC5)cc4)cnc3n(CCN3CCOCC3)c2=O)CC1` (stereo not shown) [Compound 17, 6-(4-cyclopropylphenyl)-4-hydroxy-N-(4-methylcyclohexyl)-1-(2-morpholinoethyl)-2-oxo-1,2-dihydro-1,8-naphthyridine-3-carboxamide]: the pIC50 (commonly the IC50 on a negative log10 scale, so that one unit is a factor of ten) is 6.00 to 7.00 on human CB2 receptor and under 6.00 at human recombinant CB1R (class symbols).

For the molecule `Cc1c(C(=O)NC2CCC(C)CC2)c(=O)n(CCN2CCOCC2)c2ncc(Br)cc12` (stereo not shown) [Compound 72, 6-bromo-4-methyl-N-(4-methylcyclohexyl)-1-(2-morpholinoethyl)-2-oxo-1,2-dihydro-1,8-naphthyridine-3-carboxamide], the negative-log IC50 (pIC50) was over 7.00 at human CB2 receptor (setting [1]) and under 6.00 at human recombinant CB1R (class symbols).

In the case of `O=C(NC12CC(C1)C2)c1c(O)c2cc(-c3ccc(F)cn3)cnc2n(CCN2CCOCC2)c1=O` [Compound 122, N-(bicyclo[1.1.1]pentan-1-yl)-6-(5-fluoropyridin-2-yl)-4-hydroxy-1-(2-morpholinoethyl)-2-oxo-1,2-dihydro-1,8-naphthyridine-3-carboxamide], the pIC50 on human CB2 receptor is 6.00 to 7.00; at human recombinant CB1R (class symbols), under 6.00.

Turning to `CC(NC(=O)c1c(O)c2cc(Br)cnc2n(Cc2ccc(F)cc2)c1=O)c1ccc(F)cc1` (stereo not shown) [Compound 1, 6-bromo-1-(4-fluorobenzyl)-N-(1-(4-fluorophenyl)ethyl)-4-hydroxy-2-oxo-1,2-dihydro-1,8-naphthyridine-3-carboxamide], the pIC50 on human CB2 receptor was 6.00 to 7.00; on human recombinant CB1R (class symbols) it was under 6.00.

In the case of `O=C(NC1CC2(CCC2)C1)c1cc2cc(-c3ccc(F)cn3)cnc2n(CCN2CCOCC2)c1=O` [Compound 37, 6-(5-fluoropyridin-2-yl)-1-(2-morpholinoethyl)-2-oxo-N-(spiro[3.3]heptan-2-yl)-1,2-dihydro-1,8-naphthyridine-3-carboxamide], the pIC50 on human CB2 receptor (setting [2]) is 9.22; on human recombinant CB1R, 6.95.
